Results taken from US4051253A, “Microbicidal nitrofuryl compounds” (Byk Gulden Lomberg Chemische Fabrik GmbH, priority 1974, dated 1977).
Converted amounts (≈) assume the structure as drawn. Like-named read-outs stand apart in the source and are kept apart here.

Tests used:
[1] = system: Trichomonas foetus; assay: Infection tests with Trichomonas foetus in mice; type: in vivo; conditions: for % of Animals Dying After Infection (Mean Value): stomach tube, 3 successive days, NMRI mice; for animals survived / survival rate: dose of 6.25 mg/kg, mice infected with T. foetus; for activity against T. foetus compared with metronidazol (in words): infected mice
[2] = in vivo; conditions: mouse
[3] = system: Klebs. pneum. PCI 602; assay: microbe, parasite or virus in culture; type: cell-based; conditions: for MBC: read-out: Concentration from which subcultures no longer started; for MIC: read-out: Minimum inhibiting concentration (MHK), series dilution test
[4] = system: E. coli 6106; assay: microbe, parasite or virus in culture; type: cell-based; conditions: for MIC: read-out: Minimum inhibiting concentration (MHK), series dilution test
[5] = system: Ps. aeruginosa 2; assay: microbe, parasite or virus in culture; type: cell-based; conditions: for MIC: read-out: Minimum inhibiting concentration (MHK), series dilution test
[6] = system: Staph. aur. SG 511; assay: microbe, parasite or virus in culture; type: cell-based; conditions: for MIC: read-out: Minimum inhibiting concentration (MHK), series dilution test
[7] = system: Staph. aur. PCI 1203; assay: microbe, parasite or virus in culture; type: cell-based; conditions: for MBC: read-out: Concentration from which subcultures no longer started; for MIC: read-out: Minimum inhibiting concentration (MHK), series dilution test
[8] = system: streptococci group A 807; assay: microbe, parasite or virus in culture; type: cell-based; conditions: for MIC: read-out: Minimum inhibiting concentration (MHK), series dilution test
[9] = system: streptoc. group B 779; assay: microbe, parasite or virus in culture; type: cell-based; conditions: for MBC: read-out: Concentration from which subcultures no longer started; for MIC: read-out: Minimum inhibiting concentration (MHK), series dilution test
[10] = system: streptococci group C 805; assay: microbe, parasite or virus in culture; type: cell-based; conditions: for MBC: read-out: Concentration from which subcultures no longer started; for MIC: read-out: Minimum inhibiting concentration (MHK), series dilution test
[11] = system: enterococci; assay: microbe, parasite or virus in culture; type: cell-based; conditions: for MIC: read-out: Minimum inhibiting concentration (MHK), series dilution test
[12] = system: C. Albicans 49; assay: microbe, parasite or virus in culture; type: cell-based; conditions: Candida albicans; for MIC: read-out: Minimum inhibiting concentration (MHK), series dilution test
[13] = system: C. Paracrusei 45; assay: microbe, parasite or virus in culture; type: cell-based; conditions: for MBC: read-out: Concentration from which subcultures no longer started; for MIC: read-out: Minimum inhibiting concentration (MHK), series dilution test
[14] = system: 9 bacteria and 2 yeast strains; assay: In vitro tests with 9 bacteria and 2 yeast strains (summary); type: cell-based; conditions: Table 2
[15] = system: Serratia marcescens strain HY/a 21
[16] = system: S. typhimurium G 46
[17] = subcultures applied after 48 h, read after 24 h
[18] = 24 h, read-out: Concentration from which subcultures no longer started, subcultures applied after 24 h, read after 24 h
[19] = 48 h, read-out: Concentration from which subcultures no longer started, subcultures applied after 48 h, read after 48 h
[20] = read-out: Concentration from which subcultures no longer started, subcultures applied after 24 h, read after 48 h
[21] = read-out: Concentration from which subcultures no longer started, subcultures applied after 48 h, read after 24 h

In the case of `Cc1ccccc1C(=O)NN=CC=Cc1ccc([N+](=O)[O-])o1` [A, 5-nitro-2-[(o-toluoylhydrazono)propen-1-yl]furan], the “% of Animals Dying After Infection (Mean Value)” value ([1]; 3.12 mg/kg) is reported as 91.66%, the “% of Animals Dying After Infection (Mean Value)” value ([1]; 6.25 mg/kg) is reported as 36.33% and the “% of Animals Dying After Infection (Mean Value)” value ([1]; 12.5 mg/kg) is reported as 3.33%. The “animals survived / survival rate” value [1] was 63.3%, the “activity against T. foetus compared with metronidazol (in words)” value [1] was “substantially better activity in mice infected with T. foetus” and the LD50 [2] was greater than 2000 mg/kg. It also gave an MBC ([3]; 24 h) of 31.2 µg/mL (≈ 104 µM), an MIC ([3]; 24 h) of 7.8 µg/mL (≈ 26.1 µM) and an MBC ([3]; 48 h) of 31.2 µg/mL (≈ 104 µM). The MIC ([3]; 48 h) was 7.8 µg/mL (≈ 26.1 µM), the MBC [3] was 31.2 µg/mL (≈ 104 µM) and the “Concentration from which subcultures no longer started” value [3, 17] was 31.25 µg/mL. For the same compound, the MBC ([4]; Escherichia coli, 6106, 24 h, read-out: Concentration from which subcultures no longer started) was 62.5 µg/mL (≈ 209 µM), the MIC ([4]; Escherichia coli, 6106, 24 h) was 31.2 µg/mL (≈ 104 µM) and the MBC ([4]; Escherichia coli, 6106, 48 h, read-out: Concentration from which subcultures no longer started) was 62.5 µg/mL (≈ 209 µM). For the same compound, the MIC ([4]; Escherichia coli, 6106, 48 h) was 62.5 µg/mL (≈ 209 µM), the MBC ([4]; Escherichia coli, 6106, read-out: Concentration from which subcultures no longer started) was 62.5 µg/mL (≈ 209 µM) and the “Concentration from which subcultures no longer started” value [4, 17] was 62.5 µg/mL. The MBC ([5]; Pseudomonas aeruginosa, 2, 24 h, read-out: Concentration from which subcultures no longer started) was 250 µg/mL (≈ 835 µM), the MIC ([5]; Pseudomonas aeruginosa, 2, 24 h) was 250 µg/mL (≈ 835 µM) and the MBC ([5]; Pseudomonas aeruginosa, 2, 48 h, read-out: Concentration from which subcultures no longer started) was 250 µg/mL (≈ 835 µM). The MIC ([5]; Pseudomonas aeruginosa, 2, 48 h) was 250 µg/mL (≈ 835 µM), the MBC ([5]; Pseudomonas aeruginosa, 2, read-out: Concentration from which subcultures no longer started) was 250 µg/mL (≈ 835 µM) and the “Concentration from which subcultures no longer started” value [5, 17] was 250 µg/mL. It also gave an MBC [6, 18] of 125 µg/mL (≈ 418 µM), an MIC ([6]; 24 h) of 31.2 µg/mL (≈ 104 µM) and an MBC [6, 19] of 31.2 µg/mL (≈ 104 µM). For the same compound, the MIC ([6]; 48 h) was 31.2 µg/mL (≈ 104 µM), the MBC [6, 20] was 125 µg/mL (≈ 418 µM) and the MBC [6, 21] was 31.2 µg/mL (≈ 104 µM). For the same compound, the MBC ([7]; 24 h) was 31.2 µg/mL (≈ 104 µM), the MIC ([7]; 24 h) was 15.6 µg/mL (≈ 52.1 µM) and the MBC ([7]; 48 h) was 31.2 µg/mL (≈ 104 µM). The MIC ([7]; 48 h) was 31.2 µg/mL (≈ 104 µM), the MBC [7] was 31.2 µg/mL (≈ 104 µM) and the “Concentration from which subcultures no longer started” value [7, 17] was 31.25 µg/mL. For the same compound, the MBC [8, 18] was 125 µg/mL (≈ 418 µM), the MIC ([8]; 24 h) was 31.2 µg/mL (≈ 104 µM) and the MBC [8, 19] was 125 µg/mL (≈ 418 µM). For the same compound, the MIC ([8]; 48 h) was 31.2 µg/mL (≈ 104 µM), the MBC [8, 20] was 125 µg/mL (≈ 418 µM) and the MBC [8, 21] was 62.5 µg/mL (≈ 209 µM). The MBC ([9]; 24 h) was 500 µg/mL (≈ 1670 µM), the MIC ([9]; 24 h) was 250 µg/mL (≈ 835 µM) and the MBC ([9]; 48 h) was 500 µg/mL (≈ 1670 µM). The MIC ([9]; 48 h) was 500 µg/mL (≈ 1670 µM), the MBC [9] was 500 µg/mL (≈ 1670 µM) and the “Concentration from which subcultures no longer started” value [9, 17] was 500 µg/mL. It also gave an MBC ([10]; 24 h) of 500 µg/mL (≈ 1670 µM), an MIC ([10]; 24 h) of 250 µg/mL (≈ 835 µM) and an MBC ([10]; 48 h) of 500 µg/mL (≈ 1670 µM). The MIC ([10]; 48 h) was 250 µg/mL (≈ 835 µM), the MBC [10] was 500 µg/mL (≈ 1670 µM) and the “Concentration from which subcultures no longer started” value [10, 17] was 500 µg/mL. For the same compound, the MBC [11, 18] was 250 µg/mL (≈ 835 µM), the MIC ([11]; 24 h) was 62.5 µg/mL (≈ 209 µM) and the MBC [11, 19] was 500 µg/mL (≈ 1670 µM). It also gave an MIC ([11]; 48 h) of 250 µg/mL (≈ 835 µM), an MBC [11, 20] of 250 µg/mL (≈ 835 µM) and an MBC [11, 21] of 500 µg/mL (≈ 1670 µM). It also gave an MBC [12, 18] of 62.5 µg/mL (≈ 209 µM), an MIC ([12]; 24 h) of 62.5 µg/mL (≈ 209 µM) and an MBC [12, 19] of 125 µg/mL (≈ 418 µM). For the same compound, the MIC ([12]; 48 h) was 62.5 µg/mL (≈ 209 µM), the MBC [12, 20] was 62.5 µg/mL (≈ 209 µM) and the MBC [12, 21] was 125 µg/mL (≈ 418 µM). It also gave an MBC ([13]; 24 h) of 125 µg/mL (≈ 418 µM), an MIC ([13]; 24 h) of 62.5 µg/mL (≈ 209 µM) and an MBC ([13]; 48 h) of 125 µg/mL (≈ 418 µM). The MIC ([13]; 48 h) was 125 µg/mL (≈ 418 µM), the MBC [13] was 125 µg/mL (≈ 418 µM) and the “Concentration from which subcultures no longer started” value [13, 17] was 125 µg/mL. The “in vitro antibacterial/antiyeast effect compared with metronidazol (in words)” value [14] was “substantially more favorable picture”, the Mutation frequency [15] was 0 and the “mutagenicity, spot test (in words)” value ([15]; Table 3a) was “no mutants induced by A are observed”. For the same compound, the “Mutants/ml, Test” value ([16]; 200 mg/kg per os) was 0 Mutants/ml, the “Mutants/ml, Test” value ([16]; 400 mg/kg per os) was 0 Mutants/ml and the “mutagenicity, host mediated assay (in words)” value ([16]; Table 3b) was “no mutants induced by A are observed”. For the same compound, the “Mutation frequency in test animals” value ([16]; in vivo) was 0.
For `CCc1ccccc1C(=O)NN=CC=Cc1ccc([N+](=O)[O-])o1` [B, 2-[(o-ethylbenzoylhydrazono)propen-1-yl]-5-nitrofuran], the “% of Animals Dying After Infection (Mean Value)” value ([1]; 1.56 mg/kg) was 86%, the “% of Animals Dying After Infection (Mean Value)” value ([1]; 3.12 mg/kg) was 62% and the “% of Animals Dying After Infection (Mean Value)” value ([1]; 6.25 mg/kg) was 46%. For the same compound, the “% of Animals Dying After Infection (Mean Value)” value ([1]; 12 mg/kg) was 6%, the “% of Animals Dying After Infection (Mean Value)” value ([1]; 25 mg/kg) was 0% and the “animals survived / survival rate” value [1] was 54%. The “activity against T. foetus compared with metronidazol (in words)” value [1] was “substantially better activity in mice infected with T. foetus” and the LD50 [2] was greater than 2000 mg/kg.
With `O=C1CCO1` [β-propiolactone, reference compound] the “Mutants, Test” value [15] was 6.6 × 10^2 colonies/ml and the Mutation frequency [15] was 3.4 × 10^-6.
